{"source": "patent US10526345B2", "about": "“Compounds as GPR119 agonists” (Mankind Pharma Ltd., priority 2016, dated 2020)", "data": [{"molecular_target": "T1, hGPR119 (Homo sapiens, UniProt Q8TDV5)", "T1 construct": "expressed in transfected cells; host or cells: CHO", "T1 sequence (Q8TDV5 1-335)": "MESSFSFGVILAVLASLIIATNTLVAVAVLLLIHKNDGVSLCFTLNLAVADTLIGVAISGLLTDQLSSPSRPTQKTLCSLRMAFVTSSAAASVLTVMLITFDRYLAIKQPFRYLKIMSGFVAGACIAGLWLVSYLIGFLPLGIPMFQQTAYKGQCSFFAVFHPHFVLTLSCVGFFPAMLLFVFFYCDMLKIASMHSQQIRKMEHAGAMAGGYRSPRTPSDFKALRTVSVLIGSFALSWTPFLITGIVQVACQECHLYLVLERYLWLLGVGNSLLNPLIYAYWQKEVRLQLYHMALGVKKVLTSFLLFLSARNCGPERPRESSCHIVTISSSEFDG", "test": "In vitro cyclic AMP assay (Cisbio dynamic 2 HTRF kit) in CHO-hGPR119 cells", "format": "cell-based", "conditions": "1 h, cAMP, compound at 1 μM, 60 min, read-out: Induction (% induction at 1 μM)", "units": {"activation at 1 µM": "%"}, "values": [{"smiles": "CCc1cnc(N2CCN(c3nc4ccc(-c5ccc(S(C)(=O)=O)cc5)nc4s3)CC2)nc1", "note": "[Compound 1008, 2-(4-(5-ethylpyrimidin-2-yl)piperazin-1-yl)-5-(4-(methylsulfonyl)phenyl)thiazolo[5,4-b]pyridine]", "activation at 1 µM": 3}, {"smiles": "CC(C)OC(=O)N1CCN(c2nc3ccc(-c4ccc(S(C)(=O)=O)cc4)nc3s2)CC1", "note": "[Compound 1012, isopropyl 4-(5-(4-(methylsulfonyl)phenyl)thiazolo[5,4-b]pyridin-2-yl)piperazine-1-carboxylate]", "activation at 1 µM": 5}, {"smiles": "CC(C)c1noc(N2CCC(C(C)Oc3nc4ccc(-c5cnsc5)nc4s3)CC2)n1", "note": "(centres unmarked) [Compound 1124, 2-(1-(1-(3-isopropyl-1,2,4-oxadiazol-5-yl)piperidin-4-yl)ethoxy)-5-(isothiazol-4-yl)thiazolo[5,4-b]pyridine]", "activation at 1 µM": 30}, {"smiles": "CCc1cnc(N2CCC(C(=O)Nc3nc4ccc(-c5ccc(S(C)(=O)=O)cc5)nc4s3)CC2)nc1", "note": "[Compound 1014, 1-(5-ethylpyrimidin-2-yl)-N-(5-(4-(methylsulfonyl)phenyl)thiazolo[5,4-b]pyridin-2-yl)piperidine-4-carboxamide]", "activation at 1 µM": 5}, {"smiles": "CC(C)c1noc(N2CCC([C@@H](C)Oc3nc4ccc(-c5ccc(S(C)(=O)=O)nc5)nc4s3)C2)n1", "note": "(stereo partly drawn) [Compound 1140, 2-((R)-1-(1-(3-isopropyl-1,2,4-oxadiazol-5-yl)pyrrolidin-3-yl)ethoxy)-5-(6-(methylsulfonyl)pyridin-3-yl)thiazolo[5,4-b]pyridine]", "activation at 1 µM": 4}, {"smiles": "CC(C)c1nc(N2CCC(C(C)Oc3nc4ccc(-c5ccc(S(C)(=O)=O)cc5)nc4s3)CC2)no1", "note": "(centres unmarked) [Compound 1058, 5-isopropyl-3-(4-(1-((5-(4-(methylsulfonyl)phenyl)thiazolo[5,4-b]pyridin-2-yl)oxy)ethyl)piperidin-1-yl)-1,2,4-oxadiazole]", "activation at 1 µM": 48}, {"smiles": "CC(C)c1noc(N2CCC(Oc3nc4ccc(-c5ccc(S(C)(=O)=O)cc5)nc4s3)C(F)C2)n1", "note": "(centres unmarked) [Compound 1060, 5-(3-fluoro-4-((5-(4-(methylsulfonyl)phenyl)thiazolo[5,4-b]pyridin-2-yl)oxy)piperidin-1-yl)-3-isopropyl-1,2,4-oxadiazole]", "activation at 1 µM": 39}, {"smiles": "Cc1cnc(N2CCC(C(C)Oc3nc4ccc(-c5ccc(S(C)(=O)=O)nc5)nc4s3)CC2)nc1", "note": "(centres unmarked) [Compound 1157, 2-(1-(1-(5-methylpyrimidin-2-yl)piperidin-4-yl)ethoxy)-5-(6-(methylsulfonyl)pyridin-3-yl)thiazolo[5,4-b]pyridine]", "activation at 1 µM": 81}, {"smiles": "C=C(C)c1cnc(N2CCC(C(C)Oc3nc4ccc(-c5ccc(S(C)(=O)=O)cc5)nc4s3)CC2)nc1", "note": "(centres unmarked) [Compound 1118, 5-(4-(methylsulfonyl)phenyl)-2-(1-(1-(5-(prop-1-en-2-yl)pyrimidin-2-yl)piperidin-4-yl)ethoxy)thiazolo[5,4-b]pyridine]", "activation at 1 µM": 47}, {"smiles": "CC(C)c1noc(N2CCC(C(Oc3nc4ccc(-c5ccc(S(C)(=O)=O)nc5)nc4s3)C(F)(F)F)CC2)n1", "note": "(centres unmarked) [Compound 1102, 3-isopropyl-5-(4-(2,2,2-trifluoro-1-((5-(6-(methylsulfonyl)pyridin-3-yl)thiazolo[5,4-b]pyridin-2-yl)oxy)ethyl)piperidin-1-yl)-1,2,4-oxadiazole]", "activation at 1 µM": 72}, {"smiles": "CS(=O)(=O)c1ccc(-c2nc3ccc(OCC4CCN(Cc5ccccc5)CC4)nc3s2)cc1", "note": "[Compound 1009, 5-((1-benzylpiperidin-4-yl)methoxy)-2-(4-(methyslulfonyl)phenyl)thiazolo[5,4-b]pyridine]", "activation at 1 µM": 5}, {"smiles": "CCCc1cnc(N2CCC(C(C)Oc3nc4ccc(-c5ccc(S(C)(=O)=O)cc5)nc4s3)CC2)nc1", "note": "(centres unmarked) [Compound 1053, 5-(4-(methyslulfonyl)phenyl)-2-(1-(1-(5-propylpyrimidin-2-yl)piperidin-4-yl)ethoxy)thiazolo[5,4-b]pyridine]", "activation at 1 µM": 73}, {"smiles": "CC(C)c1noc(N2CCC(C(C)Oc3nc4ccc(-c5ccc(S(C)(=O)=O)cn5)nc4s3)CC2)n1", "note": "(centres unmarked) [Compound 1161, 2-(1-(1-(3-isopropyl-1,2,4-oxadiazol-5-yl)piperidin-4-yl)ethoxy)-5-(5-(methylsulfonyl)pyridin-2-yl)thiazolo[5,4-b]pyridine]", "activation at 1 µM": 69}, {"smiles": "COCCNS(=O)(=O)c1ccc(-c2ccc3nc(OC(C)C4CCN(c5nc(C(C)C)no5)CC4)sc3n2)cc1", "note": "(centres unmarked) [Compound 1066, 4-(2-(1-(1-(3-isopropyl-1,2,4-oxadiazol-5-yl)piperidin-4-yl)ethoxy)thiazolo[5,4-b]pyridin-5-yl)-N-(2-methoxyethyl)benzenesulfonamide]", "activation at 1 µM": 30}, {"smiles": "CC(C)c1cnc(N2CCC(C(C)Oc3nc4ccc(-c5ccc(S(C)(=O)=O)cc5)nc4s3)CC2)nc1", "note": "(centres unmarked) [Compound 1113, 2-(1-(1-(5-isopropylpyrimidin-2-yl)piperidin-4-yl)ethoxy)-5-(4-(methylsulfonyl)phenyl)thiazolo[5,4-b]pyridine]", "activation at 1 µM": 57}, {"smiles": "CC(C)OC(=O)N1CCC(C(C)Oc2nc3ccc(-c4ccc(S(C)(=O)=O)cc4)nc3s2)CC1", "note": "(centres unmarked) [Compound 1056, isopropyl 4-(1-((5-(4-(methylsulfonyl)phenyl)thiazolo[5,4-b]pyridin-2-yl)oxy)ethyl)piperidine-1-carboxylate]", "activation at 1 µM": 51}, {"smiles": "CC(C)c1nnc(N2CCC(C(C)Oc3nc4ccc(-c5ccc(S(C)(=O)=O)cc5)nc4s3)CC2)o1", "note": "(centres unmarked) [Compound 1097, 2-isopropyl-5-(4-(1-((5-(4-(methylsulfonyl)phenyl)thiazolo[5,4-b]pyridin-2-yl)oxy)ethyl)piperidin-1-yl)-1,3,4-oxadiazole]", "activation at 1 µM": 34}, {"smiles": "CC(C)c1noc(N2CCC(C(C)Oc3nc4cnc(-c5ccc(S(C)(=O)=O)nc5)nc4s3)CC2)n1", "note": "(centres unmarked) [Compound 1162, 2-(1-(1-(3-isopropyl-1,2,4-oxadiazol-5-yl)piperidin-4-yl)ethoxy)-5-(6-(methylsulfonyl)pyridin-3-yl)thiazolo[5,4-d]pyrimidine]", "activation at 1 µM": 62}, {"smiles": "CC(C)OC(=O)N1CCC(N(C)c2nc3ccc(-c4ccc(S(C)(=O)=O)cc4)nc3s2)CC1", "note": "[Compound 1016, isopropyl 4-(methyl(5-(4-(methylsulfonyl)phenyl)thiazolo[5,4-b]pyridin-2-yl)amino)piperidine-1-carboxylate]", "activation at 1 µM": 0}, {"smiles": "CC(C)c1noc(N2CCC([C@H](C)Oc3nc4ccc(-c5ccc(S(=O)(=O)C6CC6)cc5)nc4s3)CC2)n1", "note": "[Compound 1095, (S)-5-(4-(1-((5-(4-(cyclopropylsulfonyl)phenyl)thiazolo[5,4-b]pyridin-2-yl)oxy)ethyl)piperidin-1-yl)-3-isopropyl-1,2,4-oxadiazole]", "activation at 1 µM": 84}, {"smiles": "CC(C)c1noc(N2CCC(C(C)Oc3nc4ccc(-c5ccc(N6CCNC6=O)nc5)nc4s3)CC2)n1", "note": "(centres unmarked) [Compound 1144, 1-(5-(2-(1-(1-(3-isopropyl-1,2,4-oxadiazol-5-yl)piperidin-4-yl)ethoxy)thiazolo[5,4-b]pyridin-5-yl)pyridin-2-yl)imidazolidin-2-one]", "activation at 1 µM": 69}, {"smiles": "CC(C)c1noc(N2CCC(C(C)Oc3nc4ccc(-c5cnc(S(C)(=O)=O)cn5)nc4s3)CC2)n1", "note": "(centres unmarked) [Compound 1158, 2-(1-(1-(3-isopropyl-1,2,4-oxadiazol-5-yl)piperidin-4-yl)ethoxy)-5-(5-(methylsulfonyl)pyrazin-2-yl)thiazolo[5,4-b]pyridine]", "activation at 1 µM": 80}]}, {"molecular_target": "T1, hGPR119", "test": "In vitro cyclic AMP assay (Cisbio dynamic 2 HTRF kit) in CHO-hGPR119 cells", "format": "cell-based", "conditions": "cAMP", "units": {"EC50": "nM"}, "values": [{"smiles": "CCCc1cnc(N2CCC(C(C)Oc3nc4ccc(-c5ccc(S(C)(=O)=O)cc5)nc4s3)CC2)nc1", "note": "(centres unmarked) [Compound 1053, 5-(4-(methyslulfonyl)phenyl)-2-(1-(1-(5-propylpyrimidin-2-yl)piperidin-4-yl)ethoxy)thiazolo[5,4-b]pyridine]", "EC50": "50 to 100"}]}]}
